From ChEMBL document CHEMBL1201862, “PubChem BioAssay data set” (2004)
Active and inactive are the calls of the source.

What was measured:
[1] = biological target: T1, Scavenger receptor class B member 1 (Mus musculus, UniProt Q61009); experiment: inhibitors of SR-BI mediated HDL lipid uptake, dose response, ldlA[mSR-BI] cells, fluorescence, cherry pick (AID 493194); format: functional, cell-based;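 note: cellular uptake of fluorescent DiI-labeled HDL measured as cell fluorescence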
T1 sequence (Q61009 whole entry): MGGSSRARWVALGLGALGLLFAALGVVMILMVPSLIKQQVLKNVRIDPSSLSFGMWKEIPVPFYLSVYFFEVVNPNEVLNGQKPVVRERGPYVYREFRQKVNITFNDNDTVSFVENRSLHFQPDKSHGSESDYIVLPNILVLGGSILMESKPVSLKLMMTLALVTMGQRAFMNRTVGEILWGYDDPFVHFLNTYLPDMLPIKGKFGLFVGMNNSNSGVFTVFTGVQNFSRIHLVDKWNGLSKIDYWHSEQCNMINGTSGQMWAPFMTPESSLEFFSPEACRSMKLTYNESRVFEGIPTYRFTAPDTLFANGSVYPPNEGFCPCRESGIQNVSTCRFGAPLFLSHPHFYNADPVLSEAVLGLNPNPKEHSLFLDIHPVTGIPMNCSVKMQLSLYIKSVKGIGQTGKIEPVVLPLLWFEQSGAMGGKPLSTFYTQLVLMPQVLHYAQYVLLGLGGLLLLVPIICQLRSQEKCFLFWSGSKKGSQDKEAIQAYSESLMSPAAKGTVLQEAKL

[2] = THP-1 cell cytotoxicity, dose response, cytotoxicity control for non-replicating M. tuberculosis project (AID 489025); format: functional
[3] = HepG2 cell cytotoxicity, dose response, cytotoxicity control for non-replicating M. tuberculosis project (AID 489018); format: functional; conditions: Mycobacterium tuberculosis
INS1 = experiment: beta cell apoptosis inhibitors, cytokine rescue, dose response, luminescence, retest (AID 449756); format: functional, cell-based; conditions: Rattus norvegicus;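 note: cell death triggered by IL-1 beta plus TNF-alpha plus IFN-gamma mixture; protective hits raise ATP signal compared with cytokine alone wells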
cells = format: functional
[4] = Vero E6 cell cytotoxicity, dose response, cytotoxicity control for non-replicating M. tuberculosis project, secondary assay (AID 492998); format: functional, VeroE6; conditions: Vero C1008
Kallikrein-7 = Kallikrein-7 (Homo sapiens, UniProt P49862); experiment: Fluorescence Intensity-based biochemical primary high throughput dose response assay to identify activators of kallikrein-7 (K7) zymogen.
Chain of Kallikrein-7 (P49862 whole entry): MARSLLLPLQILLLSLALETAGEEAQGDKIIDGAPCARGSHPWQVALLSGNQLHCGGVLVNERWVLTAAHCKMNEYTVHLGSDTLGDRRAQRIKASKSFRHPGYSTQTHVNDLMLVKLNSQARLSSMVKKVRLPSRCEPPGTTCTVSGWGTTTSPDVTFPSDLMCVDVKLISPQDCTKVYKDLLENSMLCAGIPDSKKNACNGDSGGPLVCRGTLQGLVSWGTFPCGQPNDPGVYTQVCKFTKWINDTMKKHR

[5] = biological target: Induced myeloid leukemia cell differentiation protein Mcl-1 (Homo sapiens, UniProt Q07820); format: functional
Chain of Induced myeloid leukemia cell differentiation protein Mcl-1 (Q07820 whole entry): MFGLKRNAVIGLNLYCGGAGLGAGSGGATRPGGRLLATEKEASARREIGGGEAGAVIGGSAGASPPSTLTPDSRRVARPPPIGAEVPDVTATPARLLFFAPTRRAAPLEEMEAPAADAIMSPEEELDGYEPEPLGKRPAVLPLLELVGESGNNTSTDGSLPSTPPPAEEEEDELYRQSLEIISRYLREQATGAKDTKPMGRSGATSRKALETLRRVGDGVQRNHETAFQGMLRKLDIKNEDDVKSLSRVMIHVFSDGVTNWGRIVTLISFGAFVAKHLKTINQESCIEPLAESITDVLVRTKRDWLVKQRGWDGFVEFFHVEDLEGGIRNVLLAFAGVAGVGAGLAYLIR

[6] = MC4R antagonists, dose response, counter-screen for LGR2 antagonist project, cell-based, plate reader, cherry pick (AID 743444); format: functional;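 note: transfected HEK 293 cells stimulated with alpha-MSH peptide; potency of inhibitors of the alpha-MSH evoked signal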
[7] = HEK293 cell cytotoxicity, dose response, cytotoxicity control, plate reader, cherry-picked samples (AID 743446); format: functional, cell-based
[8] = A549 cell cytotoxicity, dose response, cytotoxicity control, plate reader, cherry-pick, antagonist series (AID 743412); format: functional, cell-based
[9] = LGR2 antagonists, dose response, cell-based, HEK293, CRE-luciferase reporter, cherry pick, set 2 (AID 743343); format: functional;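 note: transfected cells were stimulated with diluted bursicon conditioned medium after compound addition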
[10] = HepG2 cell cytotoxicity, dose response, cytotoxicity control, plate reader, cherry-pick, antagonist series (AID 743416); format: functional, cell-based
Paired box protein Pax-8 = Paired box protein Pax-8 (Homo sapiens, UniProt Q06710); experiment: inhibitors of PAX8-driven TPO luciferase reporter, dose response, RMG-I cells, cherry-pick (AID 687027); format: functional, cell-based;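 note: luciferase reporter driven by Pax8 target thyroperoxidase promoter measured by SteadyGlo luminescence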
Chain of Paired box protein Pax-8 (Q06710 whole entry): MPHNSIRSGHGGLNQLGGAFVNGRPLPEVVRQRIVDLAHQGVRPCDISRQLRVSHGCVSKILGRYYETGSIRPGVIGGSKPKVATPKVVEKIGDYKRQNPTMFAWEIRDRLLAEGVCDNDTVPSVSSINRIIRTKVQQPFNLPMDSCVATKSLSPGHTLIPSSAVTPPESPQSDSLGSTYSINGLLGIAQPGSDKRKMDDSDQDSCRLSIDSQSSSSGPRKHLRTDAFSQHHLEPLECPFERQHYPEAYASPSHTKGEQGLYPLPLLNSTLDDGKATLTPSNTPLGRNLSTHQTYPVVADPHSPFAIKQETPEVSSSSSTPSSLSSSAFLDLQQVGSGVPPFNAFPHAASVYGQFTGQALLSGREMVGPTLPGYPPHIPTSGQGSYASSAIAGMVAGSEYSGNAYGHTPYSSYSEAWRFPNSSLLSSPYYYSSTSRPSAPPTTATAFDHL

X-box-binding protein 1 = biological target: T2, X-box-binding protein 1 (Homo sapiens, UniProt P17861); format: functional, Cricetulus griseus;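 note: confirmatory dose-response counter-screen serving a CHOP assay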
T2 sequence (P17861 whole entry): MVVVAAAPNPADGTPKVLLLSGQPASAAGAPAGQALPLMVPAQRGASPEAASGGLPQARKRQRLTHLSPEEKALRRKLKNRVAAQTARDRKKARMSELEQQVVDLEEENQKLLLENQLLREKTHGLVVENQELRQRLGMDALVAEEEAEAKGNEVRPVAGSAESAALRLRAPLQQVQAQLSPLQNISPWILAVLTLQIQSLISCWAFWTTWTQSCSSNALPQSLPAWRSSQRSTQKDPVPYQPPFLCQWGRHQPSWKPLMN

[11] = Luminescence Cell-Based Dose Retest to Confirm Inhibitors of Cancer Stem Cells. [Related pubchem assays (depositor defined):AID2717, AID2721]; format: functional, Homo sapiens; conditions: Homo sapiens
[12] = growth suppression of PTEN-null colon cells, dose response, cell-based, HCT116 PTEN knockout (AID 1047); format: functional;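 note: HCT116 colon tumor cells with PTEN knocked out; cells exposed to compound for 60 hours before readout; potency for loss of cell viability measured by luminescence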
[13] = growth suppression of beta-catenin-knockout colon cells, dose response, cell-based, HCT116, human colon tumor (AID 1045); format: functional;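 note: HCT116 colon tumor cells with beta catenin knocked out; cells exposed to compound for 60 hours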
Streptococcus = experiment: Group A Streptococcus viability loss, dose response, counter-screen for streptokinase expression inhibitor project, luminescence, BacTiterGlo (AID 1915); format: functional, organism-based;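 note: potency for reduction of bacterial viability or growth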
[14] = system: Streptococcus sp. 'group A'; experiment: growth inhibition of control SK(-) GAS strain, dose response, counter-screen for streptokinase expression inhibitor project, luminescence, kanamycin, BacTiterGlo, confirmation (AID 1900); format: functional, organism-based
[15] = biological target: Voltage-gated N-type calcium channel alpha-1B subunit/Amyloid beta A4 precursor protein-binding family A member 1 (Homo sapiens, UniProt Q00975+Q02410); experiment: disruptors of Mint-PDZ/N-type channel peptide interaction – biochemical, HTRF, SAR follow-up (AID 2489); format: functional
Chain of Voltage-gated N-type calcium channel alpha-1B subunit/Amyloid beta A4 precursor protein-binding family A member 1 (Q00975 whole entry): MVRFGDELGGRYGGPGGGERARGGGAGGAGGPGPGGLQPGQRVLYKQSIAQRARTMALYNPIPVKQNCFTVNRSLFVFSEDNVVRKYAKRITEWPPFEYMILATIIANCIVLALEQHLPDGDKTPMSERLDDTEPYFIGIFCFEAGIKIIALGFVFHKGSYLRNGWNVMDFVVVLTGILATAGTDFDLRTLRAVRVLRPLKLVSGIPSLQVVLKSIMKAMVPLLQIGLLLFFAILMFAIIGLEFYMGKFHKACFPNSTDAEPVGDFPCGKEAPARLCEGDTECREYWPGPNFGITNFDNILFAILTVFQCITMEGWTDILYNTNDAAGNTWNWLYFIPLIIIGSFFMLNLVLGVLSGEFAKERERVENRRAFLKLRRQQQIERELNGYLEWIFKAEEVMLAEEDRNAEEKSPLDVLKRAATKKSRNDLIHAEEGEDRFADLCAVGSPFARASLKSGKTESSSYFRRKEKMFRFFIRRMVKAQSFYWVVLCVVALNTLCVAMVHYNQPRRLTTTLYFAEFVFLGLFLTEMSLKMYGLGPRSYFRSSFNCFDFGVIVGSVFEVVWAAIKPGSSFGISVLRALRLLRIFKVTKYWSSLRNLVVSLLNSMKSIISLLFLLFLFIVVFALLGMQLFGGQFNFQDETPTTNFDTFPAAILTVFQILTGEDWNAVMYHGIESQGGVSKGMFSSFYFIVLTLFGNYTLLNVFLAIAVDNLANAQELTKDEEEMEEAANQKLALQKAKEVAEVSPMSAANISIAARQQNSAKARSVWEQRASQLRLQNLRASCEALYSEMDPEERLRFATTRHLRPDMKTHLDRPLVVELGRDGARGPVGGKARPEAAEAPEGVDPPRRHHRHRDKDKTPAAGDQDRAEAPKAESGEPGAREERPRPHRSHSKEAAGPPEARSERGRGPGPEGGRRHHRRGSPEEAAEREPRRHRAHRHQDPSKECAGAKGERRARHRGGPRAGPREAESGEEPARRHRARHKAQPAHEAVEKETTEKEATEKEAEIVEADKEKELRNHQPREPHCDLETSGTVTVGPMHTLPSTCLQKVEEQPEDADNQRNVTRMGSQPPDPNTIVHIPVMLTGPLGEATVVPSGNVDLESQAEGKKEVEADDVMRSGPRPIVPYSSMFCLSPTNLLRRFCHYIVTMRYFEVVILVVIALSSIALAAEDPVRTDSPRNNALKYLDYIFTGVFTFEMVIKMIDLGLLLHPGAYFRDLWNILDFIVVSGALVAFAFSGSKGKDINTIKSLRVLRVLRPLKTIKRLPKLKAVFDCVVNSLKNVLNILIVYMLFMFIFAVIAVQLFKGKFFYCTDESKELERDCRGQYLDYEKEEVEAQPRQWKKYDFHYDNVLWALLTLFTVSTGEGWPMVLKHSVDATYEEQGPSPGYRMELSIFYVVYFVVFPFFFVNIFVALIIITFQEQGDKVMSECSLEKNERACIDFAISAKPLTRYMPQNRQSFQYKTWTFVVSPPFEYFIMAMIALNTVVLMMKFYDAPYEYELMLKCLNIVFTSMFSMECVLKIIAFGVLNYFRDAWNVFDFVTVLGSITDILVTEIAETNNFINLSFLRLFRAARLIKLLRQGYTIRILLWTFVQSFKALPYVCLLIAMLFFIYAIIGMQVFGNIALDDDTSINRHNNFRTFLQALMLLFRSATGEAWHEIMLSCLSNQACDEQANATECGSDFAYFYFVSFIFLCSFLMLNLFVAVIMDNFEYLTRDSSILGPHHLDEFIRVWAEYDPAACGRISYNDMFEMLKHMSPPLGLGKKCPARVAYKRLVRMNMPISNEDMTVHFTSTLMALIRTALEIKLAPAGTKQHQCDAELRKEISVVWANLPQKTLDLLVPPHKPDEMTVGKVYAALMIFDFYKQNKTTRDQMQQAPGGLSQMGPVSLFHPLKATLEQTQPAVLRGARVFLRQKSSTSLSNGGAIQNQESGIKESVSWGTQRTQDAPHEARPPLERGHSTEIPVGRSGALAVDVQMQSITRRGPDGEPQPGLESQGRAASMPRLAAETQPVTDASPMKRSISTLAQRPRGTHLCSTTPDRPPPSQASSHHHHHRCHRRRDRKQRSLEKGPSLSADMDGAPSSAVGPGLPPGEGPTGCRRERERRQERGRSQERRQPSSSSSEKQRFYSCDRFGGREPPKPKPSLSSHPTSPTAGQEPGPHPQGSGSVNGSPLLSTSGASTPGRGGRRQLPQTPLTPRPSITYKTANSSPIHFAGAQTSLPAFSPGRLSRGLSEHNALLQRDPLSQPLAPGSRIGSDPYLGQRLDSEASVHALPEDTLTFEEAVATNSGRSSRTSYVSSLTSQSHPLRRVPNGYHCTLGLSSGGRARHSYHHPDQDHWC
Chain of Voltage-gated N-type calcium channel alpha-1B subunit/Amyloid beta A4 precursor protein-binding family A member 1 (Q02410 whole entry): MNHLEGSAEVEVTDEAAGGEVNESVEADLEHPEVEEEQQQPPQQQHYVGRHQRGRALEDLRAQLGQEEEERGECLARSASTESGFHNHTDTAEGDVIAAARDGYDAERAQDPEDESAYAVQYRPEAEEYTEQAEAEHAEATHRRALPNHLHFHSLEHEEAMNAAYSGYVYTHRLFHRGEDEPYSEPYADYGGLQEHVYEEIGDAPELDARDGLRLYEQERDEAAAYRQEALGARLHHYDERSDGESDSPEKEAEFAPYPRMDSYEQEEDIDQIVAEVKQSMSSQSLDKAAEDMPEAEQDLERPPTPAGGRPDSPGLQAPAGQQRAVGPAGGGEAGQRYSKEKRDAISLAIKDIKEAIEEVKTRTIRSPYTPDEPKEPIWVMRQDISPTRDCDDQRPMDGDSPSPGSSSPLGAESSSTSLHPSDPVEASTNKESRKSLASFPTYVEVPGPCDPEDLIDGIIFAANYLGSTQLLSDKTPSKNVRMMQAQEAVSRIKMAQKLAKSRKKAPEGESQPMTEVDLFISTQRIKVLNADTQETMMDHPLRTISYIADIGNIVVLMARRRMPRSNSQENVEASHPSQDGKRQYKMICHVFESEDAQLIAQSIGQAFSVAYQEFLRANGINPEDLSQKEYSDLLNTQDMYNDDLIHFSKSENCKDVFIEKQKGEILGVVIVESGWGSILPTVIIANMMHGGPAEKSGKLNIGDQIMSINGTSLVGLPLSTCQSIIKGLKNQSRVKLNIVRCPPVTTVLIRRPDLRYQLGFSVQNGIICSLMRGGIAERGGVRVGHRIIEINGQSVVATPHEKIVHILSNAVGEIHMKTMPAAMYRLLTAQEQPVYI

CCOc1ccc(NC(=O)CN2CCN(CC(=O)Nc3cc(OC)cc(OC)c3)CC2)cc1
active: AC50 [1] 0.414 µM

Cc1cc(N2CCC(C)CC2)nc(NCc2ccccc2)n1
active: CC50 [2] 13.4 µM | CC50 [3] > 20 µM | AC50 (INS1) 5.93 µM | IC50 (cells) 45.4 µM | CC50 [4] > 20 µM

CCC(=O)N1CCc2cc(-c3csc(NC(=O)c4ccco4)n3)ccc21
inactive: EC50 (Kallikrein-7) 10.5 µM
active: AC50 [1] 0.109 µM

O=C(Nc1cccc(Cl)c1)Nc1nnc(-c2ccncc2)s1
active: IC50 [5] 3.12 µM | CC50 [2] 6.34 µM | CC50 [3] 9.96 µM | AC50 [6] 6.08 µM | AC50 (INS1) 4.54 µM | IC50 (cells) > 50 µM | CC50 [4] > 20 µM | AC50 [7] 15.5 µM | AC50 [8] 17.3 µM | AC50 [9] 3.28 µM | AC50 [10] 8.34 µM | AC50 (Paired box protein Pax-8) 2.97 µM

COC(=O)c1[nH]c2cc(OC)ccc2c1NC(=O)c1ccc2c(c1)OCO2
active: AC50 [1] 17.8 µM

CCNC(=O)c1c(NC(=O)c2cc(-c3cc(C)ccc3O)[nH]n2)sc2c1CCCC2
active: AC50 [11] 5.2 µM | EC50 [12] 11.3 µM | EC50 [13] 15 µM | EC50 (Streptococcus) 7.09 µM | EC50 [14] 2.5 µM
10 µM: Absolute IC50 (XBP1) (X-box-binding protein 1)

CC(/C=C/c1ccco1)=NNC(=O)c1cc(C)[nH]n1
inactive: IC50 [15] > 56.8 µM
